One assay has as its target T1, Adrenergic α1D (Homo sapiens, UniProt P25100).
T1 construct: host or cells: HEK-293 cells
T1 sequence (P25100 1-572): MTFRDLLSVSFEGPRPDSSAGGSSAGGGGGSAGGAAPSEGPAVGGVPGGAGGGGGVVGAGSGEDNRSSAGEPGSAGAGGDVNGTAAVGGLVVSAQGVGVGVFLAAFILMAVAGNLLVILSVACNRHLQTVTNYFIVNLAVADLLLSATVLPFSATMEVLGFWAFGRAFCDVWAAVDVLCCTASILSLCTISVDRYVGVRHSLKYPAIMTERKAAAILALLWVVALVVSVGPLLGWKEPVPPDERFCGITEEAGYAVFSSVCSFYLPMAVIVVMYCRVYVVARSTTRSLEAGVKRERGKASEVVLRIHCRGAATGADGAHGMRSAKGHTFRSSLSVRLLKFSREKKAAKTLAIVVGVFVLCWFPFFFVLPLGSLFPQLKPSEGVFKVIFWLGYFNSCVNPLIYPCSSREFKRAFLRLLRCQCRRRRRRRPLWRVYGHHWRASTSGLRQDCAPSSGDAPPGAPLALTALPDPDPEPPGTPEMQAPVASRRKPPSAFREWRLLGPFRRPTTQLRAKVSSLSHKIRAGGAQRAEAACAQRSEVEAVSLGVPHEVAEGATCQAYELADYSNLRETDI
Briefly: Radioligand binding 203400 Adrenergic α1D. From the text:
Receptor binding methods, (α-adrenergic subtype specific, are provided below.

The next assay has as its target T2, 5-HT1A receptors (Homo sapiens, UniProt P08908).
T2 sequence (P08908 1-422): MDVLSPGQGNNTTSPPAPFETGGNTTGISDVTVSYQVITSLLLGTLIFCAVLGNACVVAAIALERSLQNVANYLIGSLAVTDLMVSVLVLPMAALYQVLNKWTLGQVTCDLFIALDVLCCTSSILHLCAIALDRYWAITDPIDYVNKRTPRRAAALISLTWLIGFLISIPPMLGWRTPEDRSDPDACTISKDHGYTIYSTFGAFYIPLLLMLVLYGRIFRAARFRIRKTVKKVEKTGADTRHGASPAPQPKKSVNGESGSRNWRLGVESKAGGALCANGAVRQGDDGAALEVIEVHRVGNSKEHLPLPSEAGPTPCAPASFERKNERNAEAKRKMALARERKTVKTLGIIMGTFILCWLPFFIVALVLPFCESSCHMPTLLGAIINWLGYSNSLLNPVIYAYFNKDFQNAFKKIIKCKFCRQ
Briefly: PET scans of primate subjects, 5-HT1A occupancy. Type of assay: in vivo. The arrangement: from tissue; host or cells: brain of living primate subjects (PET). Particulars: preliminary PET scans. An excerpt: The compound of Formula I is a dibenzothiazepine that has shown antidopaminergic activity.

Structures are written as SMILES. Like-named read-outs stand apart in the source and are kept apart here.

As for `c1ccc2c(c1)N=C(N1CCNCC1)c1ccccc1S2` [11-piperazin-1-yldibenzo[b,f][1,4]thiazepine], the IC50 on Adrenergic α1D was 0.377 ± 0.049 µM. The same compound had a n on Adrenergic α1D of 0.984 ± 0.111. The compound also registered an inhibition at 0.3 µM at Adrenergic α1D (0.3 μM) of 53%. The Ki came out at 0.185 ± 0.024 µM at Adrenergic α1D (read-out: ki) and 0.185 µM at Adrenergic α1D (α1D, read-out: Affinity). Moreover, at 5-HT1A receptors, the “receptor occupancy by PET” value was “occupies”.

As a reminder, the IC50 is the concentration that gives 50% inhibition. In general, inhibition refers to the change of the read-out against control, counted positive when it falls. A low value points to a weak effect.

The values are drawn from patent publication US20090093460A1, “Compositions” (AstraZeneca AB, priority 2003, published 2009).
